Experimental findings from ChEMBL document CHEMBL1201862, “PubChem BioAssay data set” (2004) are described below.

The structures appear in SMILES notation.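 Exposure lasted 48 hours, with cells grown in 96-well plates and compounds tested at five concentrations. The concentration for 50% growth inhibition is given as GI50.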 Calls of active or inactive are those of the source. No stated cut-off is given here; in the data, active = GI50 up to about 1.1 µM and inactive = higher.

Test in all cases: NCI anticancer screen, dose series, 48 h
Experiment [1] relates to T47D.
Experiment [2] relates to IGROV-1.
For experiment [3], the system named is UACC-62.
Experiment [4] relates to NCI/ADR-RES.
In experiment [5] the test system is BT-549.
Experiment [6] relates to CAKI-1.
The test system of experiment [7] is PC-3.
The test system of experiment [8] is NCI-H23.
Experiment [9] concerns DU-145.
Experiment [10] concerns UO-31.
Experiment [11] concerns MDA-N.
The subject of experiment [12] is HT-29.
The subject of experiment [13] is SN12C.
For experiment [14], the system named is HCT-15.
Experiment [15] has as its system Hs-578T.
Experiment [16] relates to MOLT-4.
The subject of experiment [17] is OVCAR-4.
The subject of experiment [18] is SF-539.
Experiment [19] relates to COLO 205.

`O=C(C[N+]1(c2ccccc2)CCOCC1)c1ccccc1`: the GI50 in experiment [1], in experiment [2], in experiment [3], in experiment [4], in experiment [5] and in experiment [6] was > 100 µM (inactive) each time. In addition, the GI50 in [7], in experiment [8], in experiment [9], in experiment [10], in experiment [11] and in [12] was > 100 µM (inactive) each time. The GI50 is > 100 µM (inactive) in experiment [13]; greater than 100 µM in experiment [14]; > 100 µM (inactive) in experiment [15]; 30.4 µM (inactive) in experiment [16]; > 100 µM (inactive) in experiment [17].

Regarding `CN1CCN(CCCBr)CC1`, the GI50 in experiment [1], in [2], in [3], in experiment [4], in [18] and in experiment [5] was > 100 µM (inactive) each time. Moreover, the GI50 in experiment [7], in [8], in [9], in [10], in experiment [19] and in experiment [11] was > 100 µM (inactive) in each case. The GI50 in experiment [12] was > 100 µM (inactive); in experiment [13], > 100 µM (inactive); in [14], greater than 100 µM; in [15], > 100 µM (inactive); in experiment [17], > 100 µM (inactive).

Take `Nc1ccccc1/C=C\c1ccccc1`: the GI50 in experiment [1], in experiment [2], in experiment [3], in [4], in [18] and in experiment [5] was > 100 µM (inactive) each time. In addition, the GI50 in experiment [7], in experiment [8], in experiment [9], in [10], in experiment [11] and in experiment [12] was > 100 µM (inactive) in each case. Besides, the GI50 was > 100 µM (inactive) in experiment [13], greater than 100 µM in [14], > 100 µM (inactive) in experiment [15] and > 100 µM (inactive) in experiment [16].

For the molecule `CNC(=O)CN(C)C(=O)CCC(=O)N(C)C`, the GI50 in experiment [1], in experiment [2], in experiment [3], in experiment [4], in [18] and in [5] was > 100 µM (inactive) in each case. Further, the GI50 in experiment [6], in [7], in experiment [8], in [9], in experiment [10] and in [19] was > 100 µM (inactive) throughout. Moreover, the GI50 is > 100 µM (inactive) in experiment [11]; > 100 µM (inactive) in experiment [12]; > 100 µM (inactive) in experiment [13]; greater than 100 µM in [14]; > 100 µM (inactive) in experiment [15]; > 100 µM (inactive) in experiment [16].

With `CC(C)(C)OC(=O)NCCC1CN(C(=O)c2ccccc2)c2ccccc21` (stereo not given), the GI50 in [1] was 25.2 µM (inactive); in experiment [2] it was 29.5 µM (inactive); in experiment [3], 19 µM (inactive); in [4], 22.1 µM (inactive); in experiment [5], 25.1 µM (inactive); in experiment [6], 36 µM (inactive). Besides, the GI50 in experiment [7] was 31.8 µM (inactive); in experiment [8] it was 26.3 µM (inactive); in [9], 45.8 µM (inactive); in experiment [10], 23.7 µM (inactive); in experiment [19], 19.7 µM (inactive); in experiment [11], 21.6 µM (inactive). For the same molecule, the GI50 in experiment [12] is 23.2 µM (inactive); in experiment [14], 29.9 µM; in experiment [15], 43.5 µM (inactive); in experiment [16], 22.1 µM (inactive); in [17] it was 36.9 µM (inactive).

With `COC(=O)CCNC(=O)OCc1ccccc1`, the GI50 in experiment [1], in [2], in [3], in experiment [4], in [18] and in experiment [5] was > 100 µM (inactive) each time. In addition, the GI50 in [6], in experiment [7], in experiment [8], in experiment [9], in experiment [10] and in experiment [19] was > 100 µM (inactive) throughout. Further, the GI50 in experiment [11] is > 100 µM (inactive); in experiment [12] it was > 100 µM (inactive); in [13] it was > 100 µM (inactive); in [14], greater than 100 µM; in experiment [15] it was > 100 µM (inactive); in experiment [16] it was > 100 µM (inactive).

As for `C=CCN1C(=O)C=C(c2ccccc2)n2ncc3cccc1c32`, the GI50 in experiment [1] is 18.2 µM (inactive); in experiment [2], > 100 µM (inactive); in [3], > 100 µM (inactive); in experiment [4] it was > 100 µM (inactive); in experiment [18], > 100 µM (inactive); in [5] it was > 100 µM (inactive). In addition, the GI50 in [6], in experiment [7], in [8], in experiment [9], in [10] and in [19] was > 100 µM (inactive) throughout. The GI50 was > 100 µM (inactive) in experiment [11]; 69.2 µM (inactive) in experiment [12]; > 100 µM (inactive) in experiment [13]; greater than 100 µM in experiment [14]; > 100 µM (inactive) in [15]; > 100 µM (inactive) in experiment [16].

`Cc1ccc(S(=O)(=O)n2cc(/C=C/C#N)c(-c3cn(S(=O)(=O)c4ccc(C)cc4)cc3-c3cn(S(=O)(=O)c4ccc(C)cc4)cc3/C=C/C#N)c2)cc1`: the GI50 in [1], in experiment [2], in experiment [3], in [4], in experiment [5] and in experiment [6] was > 100 µM (inactive) each time. The GI50 is 94.2 µM (inactive) in experiment [7]; 87.7 µM (inactive) in experiment [8]; > 100 µM (inactive) in experiment [9]; 38.4 µM (inactive) in [10]; 58.7 µM (inactive) in experiment [19]; > 100 µM (inactive) in experiment [11]. Also, the GI50 in experiment [12] is > 100 µM (inactive); in experiment [13], > 100 µM (inactive); in experiment [14], greater than 100 µM; in experiment [15], 90.2 µM (inactive); in [17], > 100 µM (inactive).

In the case of `Brc1ccc(-c2[nH]c3ccccc3c2/C=N\Nc2ccc(-c3nc4ccccc4[nH]3)cc2)cc1`, the GI50 in [1] is > 56.4 µM (inactive); in experiment [2] it was < 0.01 µM (active); in [3], < 0.01 µM (active); in experiment [4], < 0.01 µM (active); in experiment [18] it was < 0.01 µM (active); in [5] it was 2.08 µM (inactive). The GI50 in experiment [6], in experiment [7], in experiment [8], in [9], in experiment [10] and in experiment [19] was < 0.01 µM (active) each time. The GI50 in experiment [11] was < 0.01 µM (active); in experiment [12], < 0.01 µM (active); in experiment [13], < 0.01 µM (active); in [14], less than 0.01 µM; in experiment [15], < 0.01 µM (active); in experiment [16], < 0.01 µM (active).

As for `Cc1c(C)c(C)c(Cn2[nH]c(=O)n(C)c2=O)c(C)c1C`, the GI50 in experiment [1], in experiment [2], in experiment [3], in experiment [4], in [18] and in experiment [5] was > 100 µM (inactive) in each case. For the same molecule, the GI50 in experiment [6], in experiment [7], in [8], in experiment [9], in experiment [10] and in experiment [19] was > 100 µM (inactive) throughout. Further, the GI50 was > 100 µM (inactive) in experiment [11]; > 100 µM (inactive) in experiment [12]; > 100 µM (inactive) in [13]; greater than 100 µM in experiment [14]; > 100 µM (inactive) in experiment [15]; > 100 µM (inactive) in [16].

On to `O=S(=O)(O)c1ccc2c(/N=N/c3ccc(Cl)cc3)c(O)ccc2c1`, for which the GI50 is 89.3 µM (inactive) in [1]; > 100 µM (inactive) in experiment [2]; > 100 µM (inactive) in [3]; > 100 µM (inactive) in experiment [4]; > 100 µM (inactive) in experiment [5]; > 100 µM (inactive) in [6]. Also, the GI50 in experiment [7], in [8], in experiment [9], in experiment [10], in experiment [19] and in experiment [11] was > 100 µM (inactive) throughout. For the same molecule, the GI50 in experiment [12] was > 100 µM (inactive); in [13], > 100 µM (inactive); in experiment [14] it was greater than 100 µM; in experiment [15] it was > 100 µM (inactive); in experiment [16] it was > 100 µM (inactive); in experiment [17] it was > 100 µM (inactive).

As to `CC1Oc2c(c(=O)oc3ccccc23)[C@@]1(C)CC1C[C@H](C)C(=O)O1` (stereo not given in full), the GI50 was 37.4 µM (inactive) in experiment [1]; 33.8 µM (inactive) in experiment [2]; 19.1 µM (inactive) in experiment [3]; 32.7 µM (inactive) in experiment [4]; 25.2 µM (inactive) in experiment [18]; 30.8 µM (inactive) in experiment [5]. For the same molecule, the GI50 is 19.1 µM (inactive) in [6]; 40.8 µM (inactive) in [7]; 19.1 µM (inactive) in [8]; 23.3 µM (inactive) in [9]; 27.6 µM (inactive) in [10]; 32.1 µM (inactive) in experiment [19]. The GI50 in experiment [11] is 19.9 µM (inactive); in [12], 27.1 µM (inactive); in [13], > 10 µM (inactive); in experiment [14], 18.3 µM; in experiment [15], 30.6 µM (inactive); in experiment [16], 10.9 µM (inactive).
